Experimental findings from ChEMBL document CHEMBL1201862, “PubChem BioAssay data set” (2004) are described below.

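Cultured in 96-well plates, cells were exposed to test compound for 48 hours across five concentrations. GI50 marks 50% less growth.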 Calls of active or inactive are those of the source. No stated cut-off is given here; in the data, active = GI50 up to about 1.1 µM and inactive = higher.

Test systems include SR; DMS-273; SNB-19; SNB-75; DLD-1; NCI/ADR-RES; K562; SF-295; MCF7; SF-539; LXFL 529; SK-MEL-2; KM-20L2; A498.
Test in all cases: growth of human tumour cells (NCI), 48 h

As to `Cc1ccc2[nH]c3c(C)c4ccncc4c(C)c3c2c1`, the GI50 with SR was 528 nM (active); with DMS-273 it was 155 nM (active); in the test on SNB-19, 1240 nM (inactive); in the test with SNB-75, 1650 nM (inactive); in the test with DLD-1, 333 nM (active); in the test with NCI/ADR-RES, 513 nM (active). In addition, the GI50 with K562 is 519 nM (active); with SF-295, 1080 nM (active); with MCF7, 908 nM (active); in the test with SF-539, 1330 nM (inactive); in the test on LXFL 529, 1150 nM (inactive); in the test on SK-MEL-2, 1590 nM (inactive). The GI50 with KM-20L2 is 815 nM (active); with A498, 1500 nM (inactive).
As for `CN/N=C(\C(=O)Nc1ccc(C)c(C)c1)C(C(=O)OC)c1nc2ccc([N+](=O)[O-])cc2nc1O` (stereo unspecified), the GI50 in the test with SR, in the test with DMS-273, in the test on SNB-19, in the test with SNB-75, with DLD-1 and in the test on K562 was > 100000 nM (inactive) throughout. Further, the GI50 with SF-295, with SF-539, in the test on LXFL 529, with SK-MEL-2, in the test with KM-20L2 and with A498 was > 100000 nM (inactive) in each case.
